Measured values reported in patent US20130131062A1, “PYRIDAZINONES AND FURAN-CONTAINING COMPOUNDS” (priority 2006, published 2013).

How the values were obtained:
HPL1D = test: Sensitivity of cell proliferation to erlotinib; type: cell-based; conditions: Homo sapiens, read-out: IC50 (Erlotinib) HPL1D; EGFR WT, KRAS WT
Text: (§1) NHBE (normal human bronchiolar epithelial cells) are primary cells obtained from donor lungs and commercially available from Cambrex. The HPLID (human peripheral lung epithelial) cell line has been immortalized with the SV40 large T-antigen. WI-38: human lung fibroblast cell line. HPLID, NHBE and WI-38 cells will serve as controls in the chemical screens. WT: wildtype; WT*: over-expressed wildtype.

H1734 = test: Non Small Cell Lung Cancer Proliferation Assay (Alamar Blue), dose response; conditions: Homo sapiens, NCI-H1734, read-out: H1734 Dose Response (uM)
Method: (§16) This assay was performed on a fully automated linear track robotic platform (CRS F3 Robot System, Thermo Electron Corp., Ontario, Canada) utilizing several integrated peripherals for plate handling, liquid dispensing, and readout detection. […] The microplates are then placed at 37° C. for 48 hours to complete treatment of cells with compounds. Next, 5 ul of alamar blue was added using a liquid dispenser (FlexDrop Precision Dispenser, Perkin Elmer, Mass., USA) and incubated for 48 hours at 37° C. The alamar blue prompt fluorescence was measured on Victor V (Victor^3 V, Perkin Elmer, Mass., USA) and output data files were loaded into ORIS (Oncology Research Informatics System, MSKCC, NY, USA), a screening data acquisition and analysis platform. […]

H827 = test: as above; conditions: Homo sapiens, read-out: H827 Dose Response (uM)
Method: as §16

in vitro = conditions: human
Method: as §1
Compounds were tested in dose response studies from 10 μM to 5 nM against several non small cell lung cancer lines: H358, H827, H1118, H1650, H1734, H1975, H2030, and H3255, and were also studied in a 72 hour cytotoxicity assay against the NHBE and WI-38 cell lines.

H358 = test: Non Small Cell Lung Cancer Proliferation Assay (Alamar Blue), dose response; conditions: Homo sapiens, NCI-H358, read-out: H358 Dose Response (uM)
Method: as §16

H1118 = test: as above; conditions: Homo sapiens, read-out: H1118 Dose Response (uM)
Method: as §16

H2030 = test: Non Small Cell Lung Cancer Proliferation Assay (Alamar Blue); type: cell-based, human; conditions: Homo sapiens, NCI-H2030, dose response 10 μM to 5 nM
Method: (§2) These cells have a doubling time of 1-2 days. All cell types are adherent and grow in colonies. The cells should be kept at a density between 50,000 cells/mL-500,000 cells/mL to provide for optimum growth and adequate nutrition. The cell line should be maintained at 37° C. in a humidified atmosphere with 5% CO2 in a sterile cell culture incubator.
(§3) To perform the assay, the Non Small Cell Lung Cancer lines are diluted in media and plated into 384 well microplates at a final density of 250 cells in 45 μL.
(§4) High Controls for this assay are made by treating Non Small Cell Lung Cancer cells with 5 ul of 10% DMSO. [Final concentration in this assay is 1% DMSO].
(§5) Important Note: All compounds for testing in this assay should be done at the final concentration of 1% DMSO.
(§6) After addition, the cells are placed in cell culture incubator at 37° C. for 48 hours for complete treatment.
(§7) After drug treatment, cytotoxicity is measured by Alamar Blue reduction.
(§8) The cells are incubated for 48 hours at 37° C. to complete the Alamar Blue reduction.
(§9) The final step in the assay is to measure the amount of Alamar Blue reduction. […] The Alamar Blue fluorescence is measured at an excitation of 530 nm and emission of 590 nm.
(§10) For the NSCLC project, the cell based assay was screened against a small molecule library of approximately 200,000 compounds. The compound library is stored in our automated robotic freezer (Biophile) at −20° C. in 100% DMSO. Compound freeze and thaw cycles are kept to a minimum. […] This assay was performed on a fully automated linear track robotic platform (CRS F3 Robot System, Thermo Electron Corp., Ontario, Canada) utilizing several integrated peripherals for plate handling, liquid dispensing, and readout detection. […] The microplates are then placed at 37° C. for 48 hours to complete treatment of cells with compounds. Next, 5 ul of alamar blue was added using a liquid dispenser (FlexDrop Precision Dispenser, Perkin Elmer, Mass., USA) and incubated for 48 hours at 37° C. The alamar blue prompt fluorescence was measured on Victor V (Victor^3 V, Perkin Elmer, Mass., USA) and output data files were loaded into ORIS (Oncology Research Informatics System, MSKCC, NY, USA), a screening data acquisition and analysis platform.

H3255 = test: as above; type: cell-based, human; conditions: Homo sapiens, NCI-H3255, dose response 10 μM to 5 nM
Method: as §2, §3, §4, §5, §6, §7, §8, §9, §10

H1975 = test: as above; type: cell-based, human; conditions: Homo sapiens, NCI-H1975, dose response 10 μM to 5 nM
Method: as §2, with “Non Small Cell Lung Cancer cell lines are grown and maintained in Corning 175 cm2 flasks in RPMI 1640 media supplemented with 10% FBS, 1% antibiotic solution, 1% additional glutamine and pyruvate. These” for “These”
(§11) To perform the assay, the Non Small Cell Lung Cancer lines are diluted in media and plated into 384 well microplates at a final density of 250 cells in 45 μL. To ensure consistency and minimal pipetting error, the cells are plated using the Multidrop 384 with the following settings: Rocker Switch set at 384, Volume 45 and Column 24.
(§12) Low Controls for this assay are made by treating Non Small Cell Lung Cancer cells with 5 ul of staurosporine at 250 uM in 10% DMSO and 1% SDS. [Final concentration in this assay is 25 uM staurosporine in 1% DMSO and 0.1% SDS.]
as §4
(§13) The remaining wells of the 384 microplate may be treated with different compounds depending on the study. Important Note: All compounds for testing in this assay should be done at the final concentration of 1% DMSO.
as §6
(§14) After drug treatment, cytotoxicity is measured by Alamar Blue reduction. 5 μL of Alamar Blue is added to the 384 microplates using the Flexdrop.
as §8, §9
(§15) For the NSCLC project, the cell based assay was screened against a small molecule library of approximately 200,000 compounds. The compound library is stored in our automated robotic freezer (Biophile) at −20° C. in 100% DMSO. Compound freeze and thaw cycles are kept to a minimum. Compounds for use are diluted into the appropriate concentration and plated into 384 well microplates using our custom built low volume 384-well head tool (TPS 384, Apricot Designs Inc., CA, USA). This assay was performed on a fully automated linear track robotic platform (CRS F3 Robot System, Thermo Electron Corp., Ontario, Canada) utilizing several integrated peripherals for plate handling, liquid dispensing, and readout detection. First, non-small cell lung cancer cell lines are dispensed into 384 well microplates (Corning #3712 Tissue Culture Treated Plate, Corning, N.Y., USA) with 5 μL of test compounds at 100 uM in 10% DMSO for screening studies or 1 mM in 10% DMSO to 50 nM in 10% DMSO for dose response studies. The microplates are then placed at 37° C. for 48 hours to complete treatment of cells with compounds. Next, 5 ul of alamar blue was added using a liquid dispenser (FlexDrop Precision Dispenser, Perkin Elmer, Mass., USA) and incubated for 48 hours at 37° C. The alamar blue prompt fluorescence was measured on Victor V (Victor^3 V, Perkin Elmer, Mass., USA) and output data files were loaded into ORIS (Oncology Research Informatics System, MSKCC, NY, USA), a screening data acquisition and analysis platform.

H1650 = test: as above; type: cell-based, human; conditions: Homo sapiens, NCI-H1650, dose response 10 μM to 5 nM
Method: as §2, with “Non Small Cell Lung Cancer cell lines are grown and maintained in Corning 175 cm2 flasks in RPMI 1640 media supplemented with 10% FBS, 1% antibiotic solution, 1% additional glutamine and pyruvate. These” for “These”
as §11, §12, §4, §13, §6, §14, §8, §9, §15

| IC50 (H1734) [µM] | IC50 (H827) [µM] | IC50 at 72 h (in vitro) [µM] | IC50 (H358) [µM] | IC50 (H1118) [µM] | IC50 (H2030) [µM] | IC50 (H3255) [µM] | IC50 (H1975) [µM] | IC50 (H1650) [µM] | SMILES | IC50 (HPL1D) [µM] | IC50 at 72 h (in vitro; NHBE CytoTox (uM)) [µM] |
| --- | --- | --- | --- | --- | --- | --- | --- | --- | --- | --- | --- |
| – | – | – | – | – | – | – | – | – | C#Cc1cccc(Nc2ncnc3cc(OCCOC)c(OCCOC)cc23)c1 [Erlotinib, erlotinib] | 10 | – |
| > 10 | > 10 | > 10 | > 10 | > 10 | > 10 | > 10 | > 10 | > 10 | CN/N=C1\C=NN(c2ccccc2)C(=O)C1Cl (centres unmarked) [compound 257024] | – | > 10 |
